Data: patent US11964973B2 (priority 2019, dated 2024)
Where two headings read alike, the source gives them in different places.

What was measured:
DGKα = DGKα (Homo sapiens (Human), UniProt P23743); test: biochemical; assay type: biochemical
human DGKζ = human DGKζ (Homo sapiens (Human), UniProt Q13574); test: biochemical; assay type: biochemical
[1] = tested on: Human venous whole blood (IFN-γ); test: Human whole blood IFN-γ assay; assay type: cell-based
Experimental: Assay 10: Human Whole Blood IFN-γ Assay
Human venous whole blood (22.5 μL per well), obtained from healthy donors, was pre-treated with compounds for one hour at 37° C. in a humidified 95% air/5% CO2 incubator. The blood was stimulated with 2.5 μL anti-human CD3 and anti-CD28 mAb at a final concentration of 1 μg/mL each for 24 hours at 37° C. IFN-γ in the supernatants was measured using AlphLISA kit (Cat #AL217).

[2] = liposome (LIPGLO) assay, read-out: DGKα LIPGLO IC50
[3] = liposome (LIPGLO) assay, read-out: DGKζ LIPGLO IC50
[4] = human whole blood, anti-CD3 plus anti-CD28, 24 hours, read-out: INFg Whole Blood Normalized Agonist EC50
[5] = Homo sapiens, 24 h, human whole blood, anti-CD3 plus anti-CD28, 24 hours, read-out: INFg Whole Blood Normalized Agonist EC50
[6] = Table A, liposome (LIPGLO) assay, read-out: DGKα
[7] = Table A, liposome (LIPGLO) assay, read-out: DGKζ

DGKα, sequence (P23743 whole entry, looked up): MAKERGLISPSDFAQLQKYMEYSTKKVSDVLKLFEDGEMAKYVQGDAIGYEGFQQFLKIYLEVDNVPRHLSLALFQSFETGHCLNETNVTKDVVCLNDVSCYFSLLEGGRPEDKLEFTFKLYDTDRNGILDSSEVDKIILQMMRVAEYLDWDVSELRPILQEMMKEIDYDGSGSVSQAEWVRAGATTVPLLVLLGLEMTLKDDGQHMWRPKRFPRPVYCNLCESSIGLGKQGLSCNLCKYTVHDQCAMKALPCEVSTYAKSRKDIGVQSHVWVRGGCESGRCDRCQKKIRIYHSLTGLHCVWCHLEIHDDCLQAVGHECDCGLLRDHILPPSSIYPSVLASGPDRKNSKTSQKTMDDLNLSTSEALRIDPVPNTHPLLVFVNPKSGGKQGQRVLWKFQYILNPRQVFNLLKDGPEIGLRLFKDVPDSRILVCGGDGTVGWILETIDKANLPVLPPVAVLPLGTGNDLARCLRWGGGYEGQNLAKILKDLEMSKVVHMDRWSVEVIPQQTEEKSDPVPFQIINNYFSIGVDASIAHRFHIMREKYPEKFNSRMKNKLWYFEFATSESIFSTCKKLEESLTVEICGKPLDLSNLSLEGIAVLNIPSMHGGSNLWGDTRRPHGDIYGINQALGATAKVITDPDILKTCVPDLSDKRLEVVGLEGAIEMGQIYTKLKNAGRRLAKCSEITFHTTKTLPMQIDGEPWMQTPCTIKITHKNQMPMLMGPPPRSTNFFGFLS
human DGKζ, sequence (Q13574 whole entry, looked up): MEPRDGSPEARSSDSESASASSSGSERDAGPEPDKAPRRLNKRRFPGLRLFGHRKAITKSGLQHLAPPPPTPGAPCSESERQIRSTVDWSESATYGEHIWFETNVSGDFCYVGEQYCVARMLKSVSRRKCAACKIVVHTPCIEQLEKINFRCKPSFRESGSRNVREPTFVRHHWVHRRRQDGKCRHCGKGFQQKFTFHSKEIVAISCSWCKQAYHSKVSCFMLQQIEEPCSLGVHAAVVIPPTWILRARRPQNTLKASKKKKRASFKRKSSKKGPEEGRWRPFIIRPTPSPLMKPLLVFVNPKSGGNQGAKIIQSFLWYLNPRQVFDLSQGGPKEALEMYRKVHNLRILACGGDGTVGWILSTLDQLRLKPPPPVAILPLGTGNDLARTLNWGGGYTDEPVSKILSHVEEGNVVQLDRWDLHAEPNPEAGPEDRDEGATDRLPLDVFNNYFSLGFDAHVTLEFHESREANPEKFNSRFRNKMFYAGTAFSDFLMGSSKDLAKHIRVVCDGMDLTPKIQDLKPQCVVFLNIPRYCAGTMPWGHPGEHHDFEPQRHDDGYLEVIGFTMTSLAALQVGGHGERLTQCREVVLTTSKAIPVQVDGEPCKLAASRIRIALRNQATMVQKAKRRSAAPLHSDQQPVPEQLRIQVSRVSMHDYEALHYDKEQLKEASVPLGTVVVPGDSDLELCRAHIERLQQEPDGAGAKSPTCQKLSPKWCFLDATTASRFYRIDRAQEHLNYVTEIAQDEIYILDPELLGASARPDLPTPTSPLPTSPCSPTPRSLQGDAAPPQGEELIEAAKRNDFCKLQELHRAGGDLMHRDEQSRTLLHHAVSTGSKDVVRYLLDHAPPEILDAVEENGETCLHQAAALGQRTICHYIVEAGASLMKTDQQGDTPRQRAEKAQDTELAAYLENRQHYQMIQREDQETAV

Structure (SMILES)	IC50 (DGKα; [2]) [µM]	IC50 (human DGKζ; [3]) [µM]	EC50 [1, 5] [µM]	other results
C[C@@H]1CN(c2cc(=O)n(C)c3ccc(C#N)nc23)CC[C@H]1Oc1ccc(C2CCCC2)cc1 (single isomer, unassigned) [Example 101]	0.43	6.8	–	EC50 [1, 4]: 1.4 µM
CC(C)c1ccc(O[C@@H]2CCN(c3cc(=O)n(C)c4ccc(C#N)nc34)C[C@H]2C)cc1 (single isomer, unassigned) [Example 95]	0.4	5	–	EC50 [1, 4]: 1 µM
CC(C)c1cccc(O[C@@H]2CCN(c3cc(=O)n(C)c4ccc(C#N)nc34)C[C@H]2C)c1 [Example 122, 8-((3R,4R)-4-(3-isopropylphenoxy)-3-methylpiperidin-1-yl)-5-methyl-6-oxo-5,6-dihydro-1,5-naphthyridine-2-carbonitrile]	0.017	28	5.8	–
Cc1ccc(O[C@@H]2CCN(c3cc(=O)n(C)c4ccc(C#N)nc34)C[C@H]2C)cc1 [Example 119, 5-methyl-8-((3R,4R)-3-methyl-4-(p-tolyloxy)piperidin-1-yl)-6-oxo-5,6-dihydro-1,5-naphthyridine-2-carbonitrile]	0.24	20	6.6	–
C[C@@H]1CN(c2cc(=O)n(C)c3ccc(C#N)nc23)CC[C@H]1Oc1cccc(C2CC2)c1 [Example 91, 8-((3R,4R)-4-(3-cyclopropylphenoxy)-3-methylpiperidin-1-yl)-5-methyl-6-oxo-5,6-dihydro-1,5-naphthyridine-2-carbonitrile]	0.065	14	4.4	–
Cc1cccc(O[C@@H]2CCN(c3cc(=O)n(C)c4ccc(C#N)nc34)C[C@H]2C)c1 [Example 107, 5-methyl-8-((3R,4R)-3-methyl-4-(m-tolyloxy)piperidin-1-yl)-6-oxo-5,6-dihydro-1,5-naphthyridine-2-carbonitrile]	–	–	13	IC50 (DGKα; DGKα LIPGLO IC50): 0.13 µM; IC50 (human DGKζ; DGKζ LIPGLO IC50): 24 µM
CC(C)c1ccc(O[C@@H]2CCN(c3cc(=O)n(C)c4ccc(C#N)nc34)C[C@H]2C)cc1 (single isomer, unassigned) [Example 96]	0.057	20	–	EC50 [1, 4]: 2.6 µM
CCCc1ccc(OC2CCN(c3cc(=O)n(C)c4ccc(C#N)nc34)CC2)cc1 [Example 57, 5-methyl-6-oxo-8-(4-(4-propylphenoxy)piperidin-1-yl)-5,6-dihydro-1,5-naphthyridine-2-carbonitrile]	0.73	6.1	4.3	–
C[C@@H]1CN(c2cc(=O)n(C)c3ccc(C#N)nc23)CC[C@H]1Oc1ccc(C2CCCC2)cc1 [Example 100, 8-((3R,4R)-4-(4-cyclopentylphenoxy)-3-methylpiperidin-1-yl)-5-methyl-6-oxo-5,6-dihydro-1,5-naphthyridine-2-carbonitrile]	0.11	28	2.7	–
CC[C@@H]1CN(c2cc(=O)n(C)c3ccc(C#N)nc23)CC[C@H]1Oc1ccc(OC(C)(C)C)cc1 [Example 158, 8-((3R,4R)-4-(4-(tert-butoxy)phenoxy)-3-ethylpiperidin-1-yl)-5-methyl-6-oxo-5,6-dihydro-1,5-naphthyridine-2-carbonitrile]	–	–	2	IC50 (DGKα; read-out: DGKα LIPGLO IC50): 0.36 µM; IC50 (human DGKζ; read-out: DGKζ LIPGLO IC50): 1.9 µM
Cn1c(=O)cc(N2CCC(Oc3cnc4ccccc4n3)CC2)c2nc(C#N)ccc21 [Example 69, 5-methyl-6-oxo-8-(4-(quinoxalin-2-yloxy)piperidin-1-yl)-5,6-dihydro-1,5-naphthyridine-2-carbonitrile]	5.7	1.4	17	–
Cc1cccc(O[C@@H]2CCN(c3cc(=O)n(C)c4ccc(C#N)nc34)C[C@H]2C)c1 (single isomer, unassigned) [Example 108]	0.91	11	3	–
CCC(C)(C)c1ccc(O[C@H]2CCN(c3cc(=O)n(C)c4ccc(C#N)nc34)C[C@H]2C)cc1 [Example 169, 5-methyl-8-((3R,4S)-3-methyl-4-(4-(tert-pentyl)phenoxy)piperidin-1-yl)-6-oxo-5,6-dihydro-1,5-naphthyridine-2-carbonitrile]	–	–	1.7	IC50 (DGKα; read-out: DGKα LIPGLO IC50): 0.6 µM; IC50 (human DGKζ; read-out: DGKζ LIPGLO IC50): 1.4 µM
Cn1c(=O)cc(N2CCC(Oc3nncc4ccccc34)CC2)c2nc(C#N)ccc21 [Example 75, 5-methyl-6-oxo-8-(4-(phthalazin-1-yloxy)piperidin-1-yl)-5,6-dihydro-1,5-naphthyridine-2-carbonitrile]	27	18	20	–
Cc1ccc(O[C@@H]2CCN(c3cc(=O)n(C)c4ccc(C#N)nc34)C[C@H]2C)cc1 (single isomer, unassigned) [Example 120]	0.35	73	4.7	–
CC[C@@H]1CN(c2cc(=O)n(C)c3ccc(C#N)nc23)CC[C@@H]1Oc1cccc(C(C)(C)C)c1 [Example 166, 8-((3R,4S)-4-(3-(tert-butyl)phenoxy)-3-ethylpiperidin-1-yl)-5-methyl-6-oxo-5,6-dihydro-1,5-naphthyridine-2-carbonitrile]	0.046	1.6	–	EC50 ([1]; read-out: INFg Whole Blood Normalized Agonist EC50, human whole blood, anti-CD3 plus anti-CD28, 24 hours): 0.79 µM
Cc1cccc(O[C@@H]2CCN(c3c(C#N)c(=O)n(C)c4ccc(C#N)nc34)C[C@H]2C)c1 [Example 136, 5-methyl-8-((3R,4R)-3-methyl-4-(m-tolyloxy)piperidin-1-yl)-6-oxo-5,6-dihydro-1,5-naphthyridine-2,7-dicarbonitrile]	–	≥ 250	20	IC50 (DGKα; DGKα LIPGLO IC50): 0.81 µM
C[C@@H]1CN(c2cc(=O)n(C)c3ccc(C#N)nc23)CC[C@H]1Oc1ccc(C2CCCC2)cc1 (single isomer, unassigned) [Example 102]	0.068	83	–	EC50 [1, 4]: 3.3 µM
Cn1c(=O)cc(N2CCC(Oc3ccc(OC(C)(C)C)cc3)CC2)c2nc(C#N)ccc21 [Example 65, 8-(4-(4-(tert-butoxy)phenoxy)piperidin-1-yl)-5-methyl-6-oxo-5,6-dihydro-1,5-naphthyridine-2-carbonitrile]	0.56	3.3	6.8	–
Cn1c(=O)cc(N2CCC(Oc3ccc(C4CC4)cc3)CC2)c2nc(C#N)ccc21 [Example 59, 8-(4-(4-cyclopropylphenoxy)piperidin-1-yl)-5-methyl-6-oxo-5,6-dihydro-1,5-naphthyridine-2-carbonitrile]	1	3.7	6.4	–
CCCCc1ccc(OC2CCN(c3cc(=O)n(C)c4ccc(C#N)nc34)CC2)cc1 [Example 56, 8-(4-(4-butylphenoxy)piperidin-1-yl)-5-methyl-6-oxo-5,6-dihydro-1,5-naphthyridine-2-carbonitrile]	0.84	13	3.8	–
C[C@@H]1CN(c2cc(=O)n(C)c3ccc(C#N)nc23)CC[C@H]1Oc1ccc(F)cc1C(F)(F)F [Example 116, 8-((3R,4R)-4-(4-fluoro-2-(trifluoromethyl)phenoxy)-3-methylpiperidin-1-yl)-5-methyl-6-oxo-5,6-dihydro-1,5-naphthyridine-2-carbonitrile]	0.45	13	4.7	–
CC(C)c1ccc(O[C@H]2CCN(c3cc(=O)n(C)c4ccc(C#N)nc34)C[C@H]2C)cc1 (single isomer, unassigned) [Example 184]	–	–	–	IC50 (DGKα; [6]): 1.4 µM; IC50 (human DGKζ; [7]): 6 µM; EC50 ([1]; human whole blood IFN-γ, read-out: INFg Whole Blood): 4 µM
Cn1c(=O)cc(N2CCC(Oc3ccc(Cc4ccccc4)cc3)CC2)c2nc(C#N)ccc21 [Example 55, 8-(4-(4-benzylphenoxy)piperidin-1-yl)-5-methyl-6-oxo-5,6-dihydro-1,5-naphthyridine-2-carbonitrile]	0.95	3.8	3.7	–
Cn1c(=O)cc(N2CCC(Oc3ccc(C4CCCC4)cc3)CC2)c2nc(C#N)ccc21 [Example 58, 8-(4-(4-cyclopentylphenoxy)piperidin-1-yl)-5-methyl-6-oxo-5,6-dihydro-1,5-naphthyridine-2-carbonitrile]	0.34	2.9	5.9	–
Cc1ccc(O[C@@H]2CCN(c3cc(=O)n(C)c4ccc(C#N)nc34)C[C@H]2C)cc1 (single isomer, unassigned) [Example 121]	1.8	9.9	–	EC50 [1, 4]: 6.7 µM
C[C@@H]1CN(c2cc(=O)n(C)c3ccc(C#N)nc23)CC[C@H]1Oc1ccc(F)cc1C(F)(F)F (single isomer, unassigned) [Example 118]	0.25	52	–	EC50 [1, 4]: 4.7 µM
C[C@@H]1CN(c2cc(=O)n(C)c3ccc(C#N)nc23)CC[C@H]1Oc1ccc(F)cc1C(F)(F)F (single isomer, unassigned) [Example 117]	2	20	4.6	–
CC[C@@H]1CN(c2cc(=O)n(C)c3ccc(C#N)nc23)CC[C@H]1Oc1cccc(C(F)(F)F)c1 (single isomer, unassigned) [Example 142]	4.7	1.1	–	EC50 [1, 4]: 3 µM
CC(C)c1ccc(O[C@H]2CCN(c3cc(=O)n(C)c4ccc(C#N)nc34)C[C@H]2C)cc1 (single isomer, unassigned) [Example 183]	–	–	–	IC50 (DGKα; [6]): 0.71 µM; IC50 (human DGKζ; [7]): 0.94 µM; EC50 ([1]; Homo sapiens, human whole blood IFN-γ, read-out: INFg Whole Blood): 2.6 µM
